Test results: US12630553B2 (Ascentage Pharma (Suzhou) Co., Ltd., priority 2020, dated 2026)
Where a name gives a salt, the structure may show the parent alone.

What was measured:
[1] = Stability test of salts of compound 1 (HPLC, XRD); type: physicochemical
Protocol: 30 mg of the compound was weighed and added into an 8 mL glass bottle, and then was placed under the condition of room temperature (25° C., closed), high humidity (room temperature/75% RH, open) and light (25° C. closed, white light: 5000 Lux, ultraviolet 282 μW/cm2). samples were taken on the 5th, 10th, and 30th day for detection (HPLC, XRD).

[2] = Dynamic water adsorption (DVS) test of compound 1 solid forms; type: physicochemical; details: about 10 mg solid form
Protocol: About 10 mg of the solid form of the compound 1 was taken for dynamic water adsorption (DVS) test.

[3] = Illumination 5K lux closed, day 5
[4] = Illumination 5K lux closed, day 10

Structure (SMILES)	TRS (%) ([1]; 25° C. closed, day 5)	XPRD ([1]; 25° C. closed, day 5)	TRS (%) ([1]; 25° C. closed, day 10)	XPRD ([1]; 25° C. closed, day 10)	TRS (%) ([1]; 25° C. closed, day 30)	XPRD ([1]; 25° C. closed, day 30)	TRS (%) ([1]; 25° C./75% RH open, day 5)	XPRD ([1]; 25° C./75% RH open, day 5)	TRS (%) ([1]; 25° C./75% RH open, day 10)	XPRD ([1]; 25° C./75% RH open, day 10)	TRS (%) ([1]; 25° C./75% RH open, day 30)	XPRD ([1]; 25° C./75% RH open, day 30)	TRS (%) [1, 3] [%]	XPRD [1, 3]	TRS (%) [1, 4] [%]	XPRD [1, 4]	TRS (%) ([1]; Initial sample, day 0)	XPRD ([1]; Initial sample, day 0)	XRPD after DVS [2]
CN[C@@H](C)C(=O)N[C@H]1CN(S(=O)(=O)c2cccc(S(=O)(=O)N3CC[C@H]4CC[C@@H](C(=O)NC(c5ccccc5)c5ccccc5)N4C(=O)[C@@H](NC(=O)[C@H](C)NC)C3)c2)CC[C@H]2CCC(C(=O)NC(c3ccccc3)c3ccccc3)N2C1=O (stereo partly drawn) [Compound 1 di-p-toluenesulfonate amorphous Form XVI]	1.66	Amorphous	1.71	Amorphous	1.80	Amorphous	1.56	Amorphous	1.66	Amorphous	1.88	Amorphous	1.89	Amorphous	2.40	Amorphous	1.66	Amorphous	–
CN[C@@H](C)C(=O)N[C@H]1CN(S(=O)(=O)c2cccc(S(=O)(=O)N3CC[C@H]4CC[C@@H](C(=O)NC(c5ccccc5)c5ccccc5)N4C(=O)[C@@H](NC(=O)[C@H](C)NC)C3)c2)CC[C@H]2CCC(C(=O)NC(c3ccccc3)c3ccccc3)N2C1=O (stereo partly drawn) [Compound 1 dimethanesulfonate crystalline Form XVIII]	2.51	Crystalline Form	2.57	Crystalline	2.55	Crystalline	–	–	–	–	–	–	2.63	Crystalline	2.64	Crystalline	2.44	Crystalline	No change
CN[C@@H](C)C(=O)N[C@H]1CN(S(=O)(=O)c2cccc(S(=O)(=O)N3CC[C@H]4CC[C@@H](C(=O)NC(c5ccccc5)c5ccccc5)N4C(=O)[C@@H](NC(=O)[C@H](C)NC)C3)c2)CC[C@H]2CCC(C(=O)NC(c3ccccc3)c3ccccc3)N2C1=O (stereo partly drawn) [XIV]	–	–	–	–	–	–	–	–	–	–	–	–	–	–	–	–	–	–	No change
CN[C@@H](C)C(=O)N[C@H]1CN(S(=O)(=O)c2cccc(S(=O)(=O)N3CC[C@H]4CC[C@@H](C(=O)NC(c5ccccc5)c5ccccc5)N4C(=O)[C@@H](NC(=O)[C@H](C)NC)C3)c2)CC[C@H]2CCC(C(=O)NC(c3ccccc3)c3ccccc3)N2C1=O (stereo partly drawn) [compound 1 dihydrochloride amorphous form V]	0.72	Amorphous	0.77	Amorphous	0.83	Amorphous	0.81	Amorphous	0.77	Amorphous	0.79	Amorphous	1.81	Amorphous	2.54	Amorphous	0.73	Amorphous	No change
CN[C@@H](C)C(=O)N[C@H]1CN(S(=O)(=O)c2cccc(S(=O)(=O)N3CC[C@H]4CC[C@@H](C(=O)NC(c5ccccc5)c5ccccc5)N4C(=O)[C@@H](NC(=O)[C@H](C)NC)C3)c2)CC[C@H]2CCC(C(=O)NC(c3ccccc3)c3ccccc3)N2C1=O (stereo partly drawn) [compound 1 disulfate amorphous form XXIII]	2.45	Amorphous	2.72	Amorphous	4.83	Amorphous	2.69	Amorphous	3.14	Amorphous	5.13	Amorphous	3.66	Amorphous	5.50	Amorphous	1.96	Amorphous	–
